{"source": "paper PMC3508466", "about": "(Chemistry & biology, 2012)", "key": {"ClC-ec1 [1]": {"molecular_target": "T1, ClC-ec1 (Escherichia coli, UniProt P37019)", "T1 sequence (P37019 whole entry)": "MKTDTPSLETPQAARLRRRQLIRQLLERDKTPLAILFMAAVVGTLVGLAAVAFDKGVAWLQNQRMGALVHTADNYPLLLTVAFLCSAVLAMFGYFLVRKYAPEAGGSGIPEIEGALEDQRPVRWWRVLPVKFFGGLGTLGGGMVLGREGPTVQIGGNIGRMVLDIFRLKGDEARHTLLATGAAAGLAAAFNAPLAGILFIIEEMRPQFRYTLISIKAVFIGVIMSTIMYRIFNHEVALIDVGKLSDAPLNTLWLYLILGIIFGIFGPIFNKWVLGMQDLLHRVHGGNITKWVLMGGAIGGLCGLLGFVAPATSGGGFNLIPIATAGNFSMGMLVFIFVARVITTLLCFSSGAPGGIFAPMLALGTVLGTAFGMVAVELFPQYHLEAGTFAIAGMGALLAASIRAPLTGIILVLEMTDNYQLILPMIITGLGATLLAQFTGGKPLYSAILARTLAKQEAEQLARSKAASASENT", "conditions": "for Hill coefficient n / Imax (maximal inhibition): cis chamber"}, "ClC-ec1 [2]": {"molecular_target": "T1, ClC-ec1", "experiment": "Cl− efflux assay, ClC-ec1 reconstituted into liposomes", "assay_type": "biochemical, E. coli", "conditions": "for inhibition of ClC-ec1 by parent compounds: concentrations up to 1 mM"}, "ClC-ec1 K169A mutant": {"molecular_target": "ClC-ec1 K169A mutant (Escherichia coli, UniProt P37019, K169A)", "sequence (P37019 whole entry K169A)": "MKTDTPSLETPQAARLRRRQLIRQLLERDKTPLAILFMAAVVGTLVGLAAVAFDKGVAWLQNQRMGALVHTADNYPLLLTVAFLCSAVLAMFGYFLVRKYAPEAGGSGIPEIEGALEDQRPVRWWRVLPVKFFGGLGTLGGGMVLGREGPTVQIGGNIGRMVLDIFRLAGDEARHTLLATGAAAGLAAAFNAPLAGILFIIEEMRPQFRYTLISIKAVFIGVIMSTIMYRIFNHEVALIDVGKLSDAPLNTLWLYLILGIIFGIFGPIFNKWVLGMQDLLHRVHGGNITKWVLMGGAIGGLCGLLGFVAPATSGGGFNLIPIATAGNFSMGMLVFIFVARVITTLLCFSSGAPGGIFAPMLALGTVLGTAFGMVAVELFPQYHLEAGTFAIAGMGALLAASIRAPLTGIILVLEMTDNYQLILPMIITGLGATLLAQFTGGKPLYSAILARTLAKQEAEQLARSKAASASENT", "conditions": "E. coli polar lipids"}, "ClC-ec1 [3]": {"molecular_target": "T1, ClC-ec1"}, "[4]": {"test_system": "ClC-ec1 R17, R18, and R19 mutant", "experiment": "Cl− efflux assay, ClC-ec1 with R17, R18 and R19 mutated", "assay_type": "biochemical, E. coli"}, "[5]": {"test_system": "ClC-ec1 R23 and K30 mutant", "experiment": "Cl− efflux assay, ClC-ec1 with R23 and K30 mutated", "assay_type": "biochemical, E. coli"}, "[6]": {"test_system": "ClC-ec1 intracellular vestibule triple mutant", "assay_type": "biochemical, E. coli"}, "human ClC-1": {"molecular_target": "human ClC-1 (Homo sapiens, UniProt P35523)", "sequence (P35523 whole entry)": "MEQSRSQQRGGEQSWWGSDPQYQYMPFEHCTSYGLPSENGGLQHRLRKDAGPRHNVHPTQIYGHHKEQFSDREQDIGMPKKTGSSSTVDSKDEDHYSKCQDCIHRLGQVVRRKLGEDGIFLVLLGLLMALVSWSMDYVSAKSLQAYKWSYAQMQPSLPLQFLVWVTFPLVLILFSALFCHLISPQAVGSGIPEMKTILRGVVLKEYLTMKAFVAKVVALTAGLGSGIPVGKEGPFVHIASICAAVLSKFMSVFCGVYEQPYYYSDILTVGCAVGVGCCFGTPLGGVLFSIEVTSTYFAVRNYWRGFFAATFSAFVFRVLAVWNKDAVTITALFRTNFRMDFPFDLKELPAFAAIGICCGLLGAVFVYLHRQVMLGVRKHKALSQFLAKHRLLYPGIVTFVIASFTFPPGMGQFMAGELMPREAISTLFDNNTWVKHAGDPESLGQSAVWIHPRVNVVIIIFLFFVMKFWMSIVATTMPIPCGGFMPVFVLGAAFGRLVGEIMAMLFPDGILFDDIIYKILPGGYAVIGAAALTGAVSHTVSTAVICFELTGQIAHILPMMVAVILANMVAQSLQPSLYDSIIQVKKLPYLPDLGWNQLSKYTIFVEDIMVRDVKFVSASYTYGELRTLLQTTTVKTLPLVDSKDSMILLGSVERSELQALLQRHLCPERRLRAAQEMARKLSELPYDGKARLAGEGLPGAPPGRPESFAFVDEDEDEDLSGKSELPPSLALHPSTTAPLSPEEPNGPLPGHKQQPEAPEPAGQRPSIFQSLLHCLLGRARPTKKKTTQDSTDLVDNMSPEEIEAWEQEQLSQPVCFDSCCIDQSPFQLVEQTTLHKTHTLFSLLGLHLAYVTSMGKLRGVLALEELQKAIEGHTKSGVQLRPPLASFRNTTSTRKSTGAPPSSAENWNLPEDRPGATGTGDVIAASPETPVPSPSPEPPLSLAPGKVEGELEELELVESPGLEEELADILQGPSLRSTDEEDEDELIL", "experiment": "Inside-out patches excised from Xenopus oocytes expressing human ClC-1", "assay_type": "cell-based", "conditions": "30 μM"}, "[7]": {"test_system": "ClC-ec1 R160, R167 and R174 mutant", "experiment": "Cl− efflux assay, ClC-ec1 with R160, R167 and R174 mutated", "assay_type": "biochemical", "conditions": "E. coli polar lipids"}, "[8]": {"molecular_target": "ClC-ec1 R28A/K216A mutant (Escherichia coli, UniProt P37019, K216A/R28A)", "sequence (P37019 whole entry R28A/K216A)": "as the sequence (P37019 whole entry K169A) above, with R28A, A169K, K216A counted along it", "conditions": "E. coli polar lipids"}}, "note": "“And” between values parts separate entries of the source, which are not always exact repeats. Equal values may be shown once. “Also recorded” adds a separate entry of the source. Read-outs that look alike come from different tables or passages of the source."}
{"smiles": "O=S(=O)(O)c1cc(N=C=S)ccc1C=Cc1ccc(N=C=S)cc1S(=O)(=O)O", "note": "[DIDS, 4,4′-diisothiocyano-2,2′-stilbenedisulfonic acid, reference compound]", "values": [{"measurement": "effect of DIDS added after OADS to the same chamber", "setting": "ClC-ec1 [1]", "result": "has no effect"}, {"measurement": "effect of DIDS applied to the opposite chamber from OADS", "setting": "ClC-ec1 [1]", "result": "significant additional inhibition"}]}
{"smiles": "O=C(O)c1c2ccccc2cc2ccccc12", "note": "[9-anthracene carboxylate]", "values": [{"measurement": "inhibition of ClC-ec1 by known CLC channel inhibitors (lead panel)", "setting": "ClC-ec1 [2]", "result": "None of these compounds inhibited ClC-ec1"}]}
{"smiles": "O=C(O)c1cc([N+](=O)[O-])ccc1NCCCc1ccccc1", "note": "[NPPB, 5-nitro-2-(3-phenylpropylamino)benzoic acid]", "values": [{"measurement": "inhibition of ClC-ec1 by known CLC channel inhibitors (lead panel)", "setting": "ClC-ec1 [2]", "result": "None of these compounds inhibited ClC-ec1"}]}
{"smiles": "CCCCCCCC(=O)O", "note": "[octanoic acid]", "values": [{"measurement": "inhibition of ClC-ec1 by known CLC channel inhibitors (lead panel)", "setting": "ClC-ec1 [2]", "result": "None of these compounds inhibited ClC-ec1"}, {"measurement": "inhibition of ClC-ec1 by parent compounds", "setting": "ClC-ec1 [2]", "result": "neither parent compound detectably inhibited ClC-ec1"}]}
{"smiles": "O=C(O)c1cccnc1Nc1cccc(C(F)(F)F)c1", "note": "[niflumic acid]", "values": [{"measurement": "inhibition of ClC-ec1 by known CLC channel inhibitors (lead panel)", "setting": "ClC-ec1 [2]", "result": "None of these compounds inhibited ClC-ec1"}]}
{"smiles": "O=C(O)c1ccccc1Nc1cccc(C(F)(F)F)c1", "note": "[flufenamic acid]", "values": [{"measurement": "inhibition of ClC-ec1 by known CLC channel inhibitors (lead panel)", "setting": "ClC-ec1 [2]", "result": "None of these compounds inhibited ClC-ec1"}]}
{"smiles": "CCCCCCCC(=O)Nc1ccc(C=Cc2ccc(NC(=O)CCCCCCC)cc2S(=O)(=O)O)c(S(=O)(=O)O)c1", "note": "[OADS, 4,4′-octanamidostilbene-2,2′-disulfonate]", "values": [{"measurement": "inhibition of ClC-ec1", "setting": "ClC-ec1 [2]; 30 μM, PE/PG liposomes", "result": 84, "unit": "%"}, {"measurement": "Ki", "setting": "ClC-ec1 [2]; PE/CLN liposomes", "result": 32, "unit": "µM"}, {"measurement": "Hill coefficient n", "setting": "ClC-ec1 [2]; PE/PG liposomes", "result": 1.9}, {"measurement": "Ki", "setting": "ClC-ec1 [2]; PE/PG liposomes", "result": 7.3, "unit": "µM"}, {"measurement": "Hill coefficient n", "setting": "ClC-ec1 [2]; liposomes from E. coli polar lipids", "result": 1.9}, {"measurement": "Ki", "setting": "ClC-ec1 [2]; read-out: Ki (apparent affinity, concentration for half-maximal inhibition), liposomes from E. coli polar lipids, pH 4.0", "result": "~30 µM and 29 µM"}, {"measurement": "increase in potency compared to either parent compound", "setting": "ClC-ec1 [2]; versus octanoic acid and DADS", "result": "over 100 fold"}, {"measurement": "Ki", "setting": "ClC-ec1 K169A mutant", "result": 68, "unit": "µM"}, {"measurement": "change in sensitivity to OADS versus wild type", "setting": "ClC-ec1 K169A mutant", "result": "two-fold decrease in sensitivity"}, {"measurement": "effect on Cl− binding to ClC-ec1", "setting": "ClC-ec1 [3]", "result": "no significant effect on Cl^− binding to ClC-ec1"}, {"measurement": "effect of mutation on OADS inhibition", "setting": "[4]", "result": "had no effect on OADS inhibition"}, {"measurement": "effect of mutation on OADS inhibition", "setting": "[5]", "result": "had no effect on OADS inhibition"}, {"measurement": "effect of OADS applied to the opposite chamber from DIDS", "setting": "ClC-ec1 [1]", "result": "significant additional inhibition"}, {"measurement": "time to complete reversal of inhibition after perfusion with OADS-free solution", "setting": "ClC-ec1 [1]; 3.3 μM OADS in trans chamber, 4 min is minimum for full perfusion", "result": "4 to 10", "unit": "min"}, {"measurement": "effect of OADS added after DIDS to the same (cis) chamber", "setting": "ClC-ec1 [1]; 1 mM DIDS then 15 μM OADS", "result": "no additional inhibition; also recorded: has no effect"}, {"measurement": "Hill coefficient n", "setting": "ClC-ec1 [1]; +100 mV", "result": 3.9}, {"measurement": "Imax (maximal inhibition)", "setting": "ClC-ec1 [1]; +100 mV", "result": 34, "unit": "%"}, {"measurement": "maximal inhibition", "setting": "ClC-ec1 [1]; OADS added to cis chamber, voltage not specified", "result": "~ 40%"}, {"measurement": "Hill coefficient n", "setting": "ClC-ec1 [1]; −100 mV", "result": 6.1}, {"measurement": "Imax (maximal inhibition)", "setting": "ClC-ec1 [1]; −100 mV", "result": 40, "unit": "%"}, {"measurement": "effect of mutation on inhibition by OADS", "setting": "[6]", "result": "has no effect on inhibition by OADS"}, {"measurement": "inhibition of ClC-1", "setting": "human ClC-1", "result": 20, "unit": "%"}, {"measurement": "influence of mutation on OADS inhibition", "setting": "[7]", "result": "had no influence"}]}
{"smiles": "Nc1ccc(C=Cc2ccc(N)cc2S(=O)(=O)O)c(S(=O)(=O)O)c1", "note": "[DADS, 4,4′-diaminostilbene-2,2′-disulfonate]", "values": [{"measurement": "inhibition of ClC-ec1 by known CLC channel inhibitors (lead panel)", "setting": "ClC-ec1 [2]", "result": "None of these compounds inhibited ClC-ec1"}, {"measurement": "inhibition of ClC-ec1 by parent compounds", "setting": "ClC-ec1 [2]", "result": "neither parent compound detectably inhibited ClC-ec1"}]}
{"smiles": "CCCCCCCC(=O)Nc1ccc(/C=C\\c2ccc(NC(=O)CCCCCCC)cc2S(=O)(=O)O)c(S(=O)(=O)O)c1", "note": "[cis-OADS]", "values": [{"measurement": "potency on R28A/K216A relative to trans-OADS", "setting": "[8]", "result": "just as potently as trans-OADS"}, {"measurement": "ClC-1 inhibition, cis versus trans isomer", "setting": "human ClC-1", "result": "equally inhibited by both the cis and trans-OADS isomers"}]}
{"smiles": "O=C(O)C(Cc1ccc(Cl)cc1)Oc1ccc(Cl)cc1", "note": "(stereo not drawn) [2-(p-chlorophenoxy)-3-(4-chlorophenyl)propionic acid]", "values": [{"measurement": "inhibition of ClC-ec1 by known CLC channel inhibitors (lead panel)", "setting": "ClC-ec1 [2]", "result": "None of these compounds inhibited ClC-ec1"}]}
